Data set [1] can be described thus: Solubility in water or diluted hydrochloric acid.
The conditions of data set [2]: times of that of sugar; cited from earlier work.

Where a SMILES comes first, the peptide text is derived from it.

For the molecule `COC(=O)[C@H](Cc1ccccc1)NC(=O)[C@H](CC(=O)O)NC(=O)OCc1ccccc1`, the solubility in data set [1] (in diluted hydrochloric acid (10^-2 M) at 25° C.) is listed as 0.017 g/100 g diluted hydrochloric acid (10^-2 M); in data set [1] (in water at 25° C.) it was 0.028 g/100 g water.
`COC(=O)[C@H](Cc1ccccc1)NC(=O)[C@@H](N)CC(=O)O` [α-L-Aspartyl-L-phenylalanine methyl ester] (H-Asp-Phe-OMe): the “sweetness relative to sugar” value in data set [2] is on record as “about 200 times”.
